How the values were obtained:
[1] = molecular target: T1, HIV-1 RT-associated RNase H (Human immunodeficiency virus type 1 group M subtype B, UniProt P04585); assay: HIV-1 RNase H polymerase-independent cleavage assay; format: biochemical; conditions: compound concentration required to inhibit the HIV-1 RNase H activity by 50%; recombinant HIV-1 RT
T1 construct: The recombinant HIV-1 RT protein; His tag; made in house; host or cells: E. coli strain M15

human MT-4 cells = assay: Cellular cytotoxicity in MT-4 cells; conditions: preliminary finding

| SMILES | IC50 [1] | melting point | cellular cytotoxicity (human MT-4 cells) |
| --- | --- | --- | --- |
| NCc1cn(-c2ccc(S(N)(=O)=O)cc2)nn1 [Compound 9a] | > 100 µM |  |  |
| NS(=O)(=O)c1ccc(-n2cc(CO)nn2)cc1 [Compound 9b] | > 100 µM | 195 to 197 °C |  |
| NS(=O)(=O)c1ccc(-n2cc(-c3ccccc3)nn2)cc1 [Compound 9c] | > 100 µM | 260 to 261 °C |  |
| CCCCCc1ccc(-c2cn(-c3ccc(S(N)(=O)=O)cc3)nn2)cc1 [Compound 9d] |  | 253 to 256 °C |  |
| NS(=O)(=O)c1c(F)c(F)c(-n2cc(CO)nn2)c(F)c1F [Compound 10b] |  | 133 to 134 °C |  |
| CCCCCc1ccc(-c2cn(-c3c(F)c(F)c(S(N)(=O)=O)c(F)c3F)nn2)cc1 [Compound 10d] |  | 197 to 198 °C | > 7 µM |
| CCOC(=O)C(=O)CC(=O)/C=C/c1cccn1Cc1ccccc1Cl [RDS1759, reference compound] | 7 ± 1.5 µM |  |  |

Source: PMC5000766, “Inhibitory Effect of 2,3,5,6-Tetrafluoro-4-[4-(aryl)-1H-1,2,3-triazol-1-yl]benzenesulfonamide Derivatives on HIV Reverse Transcriptase Associated RNase H Activities” (International Journal of Molecular Sciences, 2016)
